Assay results reported in patent US6740642B2, “Macrolides with antibacterial activity” (BAsilea Parmaceutica AG, priority 2000, dated 2004).
In brackets after ≈: the same amount, converted by molar mass.

Legend:
Assay in all cases: MIC, standard microdilution
[1] = test system: P. aeruginosa ATCC27853 (+Ery. 32 μg/ml); type: cell-based
Source text: (§1) The antibacterial activities of the compounds have been determined by standard microdilution technique (National Committee for Clinical Laboratory Standards. 1997. Methods for dilution antimicrobial susceptibility tests for bacteria that grow aerobically, 4th edition. Approved standard M7-A4. National Committee for Clinical Laboratory Standards, Wayne, Pa.).

[2] = test system: E. coli ATCC25922; type: cell-based; conditions: for MIC: Escherichia coli, read-out: minimum inhibitory concentration (MIC)
Source text: as §1

[3] = test system: St. pneumoniae SL199T; type: cell-based, Streptococcus pneumoniae; conditions: for MIC: Streptococcus pneumoniae, read-out: minimum inhibitory concentration (MIC)
Source text: as §1

[4] = test system: St. pneumoniae 1/1; type: cell-based, Streptococcus pneumoniae; conditions: for MIC: Streptococcus pneumoniae, read-out: minimum inhibitory concentration (MIC)
Source text: as §1

[5] = test system: St. pneumoniae 12288; type: cell-based, Streptococcus pneumoniae; conditions: for MIC: Streptococcus pneumoniae, read-out: minimum inhibitory concentration (MIC)
Source text: as §1

[6] = test system: St. pneumoniae 1/4; type: cell-based, Streptococcus pneumoniae; conditions: for MIC: Streptococcus pneumoniae, read-out: minimum inhibitory concentration (MIC)
Source text: as §1

[7] = test system: S. aureus 1086; type: cell-based, Staphylococcus aureus; conditions: for MIC: Staphylococcus aureus, read-out: minimum inhibitory concentration (MIC)
Source text: as §1

[8] = test system: S. aureus 745; type: cell-based, Staphylococcus aureus; conditions: for MIC: Staphylococcus aureus, read-out: minimum inhibitory concentration (MIC)
Source text: as §1

[9] = test system: S. aureus ATCC29213; type: cell-based, Staphylococcus aureus; conditions: for MIC: Staphylococcus aureus, read-out: minimum inhibitory concentration (MIC)
Source text: as §1

| SMILES | minimum inhibitory concentration (MIC) [1] | MIC [2] | MIC [3] | MIC [4] | MIC [5] | MIC [6] | MIC [7] | MIC [8] | MIC [9] | minimum inhibitory concentration (MIC) [2] | minimum inhibitory concentration (MIC) [3] | minimum inhibitory concentration (MIC) [4] | minimum inhibitory concentration (MIC) [5] | minimum inhibitory concentration (MIC) [6] | minimum inhibitory concentration (MIC) [7] | minimum inhibitory concentration (MIC) [8] | minimum inhibitory concentration (MIC) [9] |
| --- | --- | --- | --- | --- | --- | --- | --- | --- | --- | --- | --- | --- | --- | --- | --- | --- | --- |
| CC[C@H]1OC(=O)[C@H](C)C(=O)[C@H](C)[C@@H](O[C@@H]2O[C@H](C)C[C@H](N(C)C)[C@H]2O)[C@](C)(OC)C[C@@H](C)C(=O)[C@H](C)[C@H]2[C@H](SCCc3ccccc3)C(=O)O[C@@]21C [Compound I-1, (3S,3aR,4R,6R,8R,9R,10R,12R,15R,15aS)-15-Ethyloctahydro-8-methoxy-4,6,8,10,12,15a-hexamethyl-3-[[2-phenylethyl]thio]-9-[[3,4,6-trideoxy-3-(dimethylamino)-β-D-xylo-hexopyranosyl]oxy]-2H-furo[2,3-c]oxacyclotetradecin-2,5,11,13(3H,6H,12H)-tetrone] | >16 µg/mL | > 16 µg/mL | 4 µg/mL (≈ 5.35 µM) | ≤ 0.5 µg/mL | 32 µg/mL (≈ 42.8 µM) | 1 µg/mL (≈ 1.34 µM) | ≤ 0.25 µg/mL | > 16 µg/mL | ≤ 0.25 µg/mL |  |  |  |  |  |  |  |  |
| CC[C@H]1OC(=O)[C@H](C)C(=O)[C@H](C)[C@@H](O[C@@H]2O[C@H](C)C[C@H](N(C)C)[C@H]2O)[C@](C)(OC)C[C@@H](C)C(=O)[C@H](C)[C@H]2[C@H](Sc3ccccc3)C(=O)O[C@@]21C [Compound I-3, (3S,3aR,4R,6R,8R,9R,10R,12R,15R,15aS)-15-Ethyloctahydro-8-methoxy-4,6,8,10,12,15a-hexamethyl-3-[phenylthio]-9-[[3,4,6-trideoxy-3-(dimethylamino)-β-D-xylo-hexopyranosyl]oxy]-2H-furo[2,3-c]oxacyclotetradecin-2,5,11,13(3H,6H,12H)-tetrone] | >16 µg/mL | > 16 µg/mL | 16 µg/mL (≈ 22.2 µM) | ≤ 0.5 µg/mL | 16 µg/mL (≈ 22.2 µM) | 2 µg/mL (≈ 2.78 µM) | 0.5 µg/mL (≈ 0.695 µM) | > 16 µg/mL | 0.5 µg/mL (≈ 0.695 µM) |  |  |  |  |  |  |  |  |
| CC[C@H]1OC(=O)[C@H](C)C(=O)[C@H](C)[C@@H](O[C@@H]2O[C@H](C)C[C@H](N(C)C)[C@H]2O)[C@](C)(OC)C[C@@H](C)C(=O)[C@H](C)[C@H]2[C@H](SCc3ccccc3)C(=O)O[C@@]21C [Compound I-4, (3S,3aR,4R,6R,8R,9R,10R,12R,15R,15aS)-15-Ethyloctahydro-8-methoxy-4,6,8,10,12,15a-hexamethyl-3-[(phenylmethyl)thio]-9-[[3,4,6-trideoxy-3-(dimethylamino)-β-D-xylo-hexopyranosyl]oxy]-2H-furo[2,3-c]oxacyclotetradecin-2,5,11,13(3H,6H,12H)-tetrone] | >16 µg/mL | > 16 µg/mL | 16 µg/mL (≈ 21.8 µM) | ≤ 0.5 µg/mL | 16 µg/mL (≈ 21.8 µM) | 8 µg/mL (≈ 10.9 µM) | 1 µg/mL (≈ 1.36 µM) | > 16 µg/mL | 1 µg/mL (≈ 1.36 µM) |  |  |  |  |  |  |  |  |
| CC[C@H]1OC(=O)[C@H](C)C(=O)[C@H](C)[C@@H](O[C@@H]2O[C@H](C)C[C@H](N(C)C)[C@H]2O)[C@](C)(OC)C[C@@H](C)C(=O)[C@H](C)[C@H]2[C@H](SC)C(=O)O[C@@]21C [Compound I-5, (3S,3aR,4R,6R,8R,9R,10R,12R,15R,15aS)-15-Ethyloctahydro-8-methoxy-4,6,8,10,12,15a-hexamethyl-3-[methylthio]-9-[[3,4,6-trideoxy-3-(dimethylamino)-β-D-xylo-hexopyranosyl]oxy]-2H-furo[2,3-c]oxacydotetradecin-2,5,11,13(3H,6H,12H)-tetrone] | >16 µg/mL |  |  |  |  |  |  |  |  | >16 µg/mL | 16 µg/mL (≈ 24.3 µM) | <=0.5 μg/ml | >32 µg/mL | 32 µg/mL (≈ 48.6 µM) | 0.5 µg/mL (≈ 0.76 µM) | >16 µg/mL | 0.5 µg/mL (≈ 0.76 µM) |
| CC[C@H]1OC(=O)[C@H](C)C(=O)[C@H](C)[C@@H](O[C@@H]2O[C@H](C)C[C@H](N(C)C)[C@H]2O)[C@](C)(OC)C[C@@H](C)C(=O)[C@H](C)[C@H]2[C@H](SCCCc3ccccn3)C(=O)O[C@@]21C [Compound I-10, (3S,3aR,4R,6R,8R,9R,10R,12R,15R,15aS)-15-Ethyloctahydro-8-methoxy-4,6,8,10,12,15a-hexamethyl-3-[[3-(2-pyridinyl)propyl]thio]-9-[[3,4,6-trideoxy-3-(dimethylamino)-β-D-xylo-hexopyranosyl]oxy]-2H-furo[2,3-c]oxacyclotetradecin-2,5,11,13(3H,6H,12H)-tetrone] | >16 µg/mL | > 16 µg/mL | 2 µg/mL (≈ 2.62 µM) | ≤ 0.12 µg/mL | 8 µg/mL (≈ 10.5 µM) | 0.25 µg/mL (≈ 0.328 µM) | ≤ 0.12 µg/mL | > 16 µg/mL | ≤ 0.12 µg/mL |  |  |  |  |  |  |  |  |
| CC[C@H]1OC(=O)[C@H](C)C(=O)[C@H](C)[C@@H](O[C@@H]2O[C@H](C)C[C@H](N(C)C)[C@H]2O)[C@](C)(OC)C[C@@H](C)C(=O)[C@H](C)[C@H]2[C@H](SCCOc3ccccc3)C(=O)O[C@@]21C [Compound I-11, (3S,3aR,4R,6R,8R,9R,10R,12R,15R,15aS)-15-Ethyloctahydro-8-methoxy-4,6,8,10,12,15a-hexamethyl-3-[[2-phenoxyethyl]thio]-9-[[3,4,6-trideoxy-3-(dimethylamino)-β-D-xylo-hexopyranosyl]oxy]-2H-furo[2,3-c]oxacyclotetradecin-2,5,11,13(3H,6H,12H)-tetrone] | >16 µg/mL | > 16 µg/mL | 4 µg/mL (≈ 5.24 µM) | ≤ 0.5 µg/mL | 8 µg/mL (≈ 10.5 µM) | 4 µg/mL (≈ 5.24 µM) | ≤ 0.25 µg/mL | > 16 µg/mL | ≤ 0.25 µg/mL |  |  |  |  |  |  |  |  |
| CC[C@H]1OC(=O)[C@H](C)C(=O)[C@H](C)[C@@H](O[C@@H]2O[C@H](C)C[C@H](N(C)C)[C@H]2O)[C@](C)(OC)C[C@@H](C)C(=O)[C@H](C)[C@H]2[C@H](Sc3ccc(OC)c(OC)c3)C(=O)O[C@@]21C [Compound I-12] | >16 µg/mL |  |  |  |  |  |  |  |  | >16 µg/mL | 8 µg/mL (≈ 10.3 µM) | <=0.5 μg/ml | 16 µg/mL (≈ 20.5 µM) | 1 µg/mL (≈ 1.28 µM) | 0.5 µg/mL (≈ 0.641 µM) | >16 µg/mL | 0.5 µg/mL (≈ 0.641 µM) |
| CC[C@H]1OC(=O)[C@H](C)C(=O)[C@H](C)[C@@H](O[C@@H]2O[C@H](C)C[C@H](N(C)C)[C@H]2O)[C@](C)(OC)C[C@@H](C)C(=O)[C@H](C)[C@H]2[C@H](SCCc3ccccn3)C(=O)O[C@@]21C [Compound I-13, (3S,3aR,4R,6R,8R,9R,10R,12R,15R,15aS)-15-Ethyloctahydro-8-methoxy-4,6,8,10,12,15a-hexamethyl-3-[[2-(2-pyridinyl)ethyl]thio]-9-[[3,4,6-trideoxy-3-(dimethylamino)-β-D-xylo-hexopyranosyl]oxy]-2H-furo[2,3-c]oxacyclotetradecin-2,5,11,13(3H,6H,12H)-tetrone] | >16 µg/mL | 16 µg/mL (≈ 21.4 µM) | 2 µg/mL (≈ 2.67 µM) | ≤ 0.5 µg/mL | 8 µg/mL (≈ 10.7 µM) | 1 µg/mL (≈ 1.34 µM) | ≤ 0.25 µg/mL | > 16 µg/mL | ≤ 0.25 µg/mL |  |  |  |  |  |  |  |  |
| CC[C@H]1OC(=O)[C@H](C)C(=O)[C@H](C)[C@@H](O[C@@H]2O[C@H](C)C[C@H](N(C)C)[C@H]2O)[C@](C)(OC)C[C@@H](C)C(=O)[C@H](C)[C@H]2[C@H](SCCn3ccc(-c4cccnc4)n3)C(=O)O[C@@]21C [Compound I-16, (3S,3aR,4R,6R,8R,9R,10R,12R,15R,15aS)-15-Ethyloctahydro-8-methoxy-4,6,8,10,12,15a-hexamethyl-3-[[2-[3-(3-pyridinyl)-1H-pyrazol-1-yl]-ethyl]thio]-9-[[3,4,6-trideoxy-3-(dimethylamino)-β-D-xylo-hexopyranosyl]oxy]-2H-furo[2,3-c]oxacyclotetradecin-2,5,11,13(3H,6H,12H)-tetrone] | >16 µg/mL | > 16 µg/mL | 0.5 µg/mL (≈ 0.613 µM) | ≤ 0.12 µg/mL | 0.5 µg/mL (≈ 0.613 µM) | ≤ 0.12 µg/mL | ≤ 0.12 µg/mL | > 16 µg/mL | ≤ 0.12 µg/mL |  |  |  |  |  |  |  |  |
| CC[C@H]1OC(=O)[C@H](C)C(=O)[C@H](C)[C@@H](O[C@@H]2O[C@H](C)C[C@H](N(C)C)[C@H]2O)[C@](C)(OC)C[C@@H](C)C(=O)[C@H](C)[C@H]2[C@H](SCCn3cnc(-c4cccnc4)n3)C(=O)O[C@@]21C [Compound I-17, (3S,3aR,4R,6R,8R,9R,10R,12R,15R,15aS)-15-Ethyloctahydro-8-methoxy-4,6,8,10,12,15a-hexamethyl-3-[[2-[3-(3-pyridinyl)-1H-1,2,4-triazol-1-yl]ethyl]thio]-9-[[3,4,6-trideoxy-3-(dimethylamino)-β-D-xylo-hexopyranosyl]oxy]-2H-furo[2,3-c]oxacyclotetradecin-2,5,11,13(3H,6H,12H)-tetrone] | >16 µg/mL | > 16 µg/mL | 1 µg/mL (≈ 1.23 µM) | ≤ 0.12 µg/mL |  | ≤ 0.12 µg/mL | ≤ 0.12 µg/mL | > 16 µg/mL | ≤ 0.12 µg/mL |  |  |  |  |  |  |  |  |
